Results: patent publication US6495528B1 (SmithKline Beecham Corporation, priority 1998, dated 2002)

Legend:
Type in all cases: cell-based
[1] = target: T1, human adenosine 2a receptor (Homo sapiens, UniProt P29274); assay: Agonist activity at adenosine 2a receptor, CHO cells with CRE-SPAP reporter (basal cAMP); conditions: CHO cells transfected with human A2a receptor; effect on basal cAMP via SPAP; ratio to NECA; minimum values (about 20% inactive impurity)
T1 construct: expressed in transfected cells; host or cells: Chinese hamster ovary (CHO) cells, also transfected with a CRE-SPAP reporter
T1 sequence (P29274 whole entry): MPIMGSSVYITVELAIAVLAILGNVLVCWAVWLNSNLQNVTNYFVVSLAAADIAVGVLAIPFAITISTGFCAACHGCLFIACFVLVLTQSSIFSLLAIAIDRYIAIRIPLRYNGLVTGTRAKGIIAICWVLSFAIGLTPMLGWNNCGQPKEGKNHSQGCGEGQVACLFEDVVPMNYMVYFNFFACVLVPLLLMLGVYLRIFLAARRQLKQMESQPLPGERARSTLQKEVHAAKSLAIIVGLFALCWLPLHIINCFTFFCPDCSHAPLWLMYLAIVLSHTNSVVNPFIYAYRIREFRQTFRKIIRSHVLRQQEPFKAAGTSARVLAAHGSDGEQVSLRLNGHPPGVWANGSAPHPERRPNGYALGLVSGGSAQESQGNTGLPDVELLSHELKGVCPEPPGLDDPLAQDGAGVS
Protocol: (§1) (1) Agonist activity against adenosine 2a, adenosine 1 and adenosine 3 receptor subtypes.
(§2) Agonist selectivity of compounds against other human adenosine receptors is determined using Chinese hamster ovary (CHO) cells transfected with the gene for the relevant human adenosine receptor following a method based on that of Castanon and Spevak, 1994. The CHO cells are also transfected with cyclic AMP response elements promoting the gene for secreted placental alkaline phosphatase (SPAP) (Wood, 1995). The effect of test compounds is determined by their effects on basal levels of cAMP (A2a ) or on forskolin-enhanced cAMP (A1 and A3) as reflected by changes in levels of SPAP. EC50 values for compounds are then determined as a ratio to that of the non-selective agonist N-ethyl carboxamide adenosine (NECA).

[2] = target: T2, human adenosine 1 receptor (Homo sapiens, UniProt P30542); assay: Agonist activity at adenosine 1 receptor, CHO cells with CRE-SPAP reporter (forskolin-enhanced cAMP); conditions: CHO cells transfected with human A1 receptor; effect on forskolin-enhanced cAMP via SPAP; ratio to NECA; minimum values (about 20% inactive impurity)
T2 construct: expressed in transfected cells; host or cells: Chinese hamster ovary (CHO) cells, also transfected with a CRE-SPAP reporter
T2 sequence (P30542 1-326): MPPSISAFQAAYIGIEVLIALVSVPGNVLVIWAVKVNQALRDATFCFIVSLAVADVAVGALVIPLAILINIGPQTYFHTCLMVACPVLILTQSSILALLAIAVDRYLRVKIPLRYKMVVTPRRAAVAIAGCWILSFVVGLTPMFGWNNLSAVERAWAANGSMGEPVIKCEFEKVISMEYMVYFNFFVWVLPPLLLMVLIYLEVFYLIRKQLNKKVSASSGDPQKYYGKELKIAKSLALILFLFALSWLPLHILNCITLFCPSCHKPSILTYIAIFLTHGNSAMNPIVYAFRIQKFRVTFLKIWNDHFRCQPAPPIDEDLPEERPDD
Protocol: as §1, §2

[3] = target: T3, human adenosine 3 receptor (Homo sapiens, UniProt P0DMS8); assay: Agonist activity at adenosine 3 receptor, CHO cells with CRE-SPAP reporter (forskolin-enhanced cAMP); conditions: CHO cells transfected with human A3 receptor; effect on forskolin-enhanced cAMP via SPAP; ratio to NECA; minimum values (about 20% inactive impurity)
T3 construct: expressed in transfected cells; host or cells: Chinese hamster ovary (CHO) cells, also transfected with a CRE-SPAP reporter
T3 sequence (P0DMS8 1-318): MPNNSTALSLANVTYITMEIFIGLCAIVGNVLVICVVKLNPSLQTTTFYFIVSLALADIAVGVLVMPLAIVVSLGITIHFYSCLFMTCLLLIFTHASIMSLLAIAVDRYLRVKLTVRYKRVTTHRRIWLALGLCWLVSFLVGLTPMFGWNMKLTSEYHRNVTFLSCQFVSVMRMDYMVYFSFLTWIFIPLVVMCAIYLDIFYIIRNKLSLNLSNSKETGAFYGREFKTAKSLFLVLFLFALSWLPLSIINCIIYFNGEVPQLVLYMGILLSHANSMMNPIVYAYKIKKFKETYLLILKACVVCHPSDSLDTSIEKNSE
Protocol: as §1, §2

SMILES	A2a EC50 as a ratio of that of NECA [1]	A1 EC50 as a ratio of that of NECA [2]	A3 EC50 as a ratio of that of NECA [3]
O=C(O)C(F)(F)F.O=C(O)C(F)(F)F.O[C@@H]1[C@H](O)[C@@H](c2nnn(CC3CC3)n2)O[C@H]1n1cnc2c(NCC(c3ccccc3)c3ccccc3)nc(NCCN3CCCCC3)nc21 [Example 4]	37.24	1318.09	>93
O=C(O)C(F)(F)F.O=C(O)C(F)(F)F.O[C@@H]1[C@H](O)[C@@H](c2nnn(CCCl)n2)O[C@H]1n1cnc2c(NCC(c3ccccc3)c3ccccc3)nc(NCCN3CCCCC3)nc21 [Example 6]	24.05	411.9	>97
OCCCn1nnc(C2OC(n3cnc4c(NCC(c5ccccc5)c5ccccc5)nc(NCCN5CCCCC5)nc43)C(O)C2O)n1 [Example 1, 2R,3R,4S,5R)-2-[6-(2,2-Diphenyl-ethylamino)-2-(2-piperidin-1-yl-ethylamino)-purin-9-yl]-5-[2-(3-hydroxy-propyl)-2H-tetrazol-5-yl]-tetrahydro-furan-3,4-diol bis(trifluoroacetate)]	22.64	434.8	>93
O=C(O)C(F)(F)F.O=C(O)C(F)(F)F.O[C@@H]1[C@H](O)[C@@H](c2nnn(C3CCC3)n2)O[C@H]1n1cnc2c(NCC(c3ccccc3)c3ccccc3)nc(NCCN3CCCCC3)nc21 [Example 7]	22.98	597.82	>95

Results, then the compound that gave them:

A2a EC50 as a ratio of that of NECA [1]	A1 EC50 as a ratio of that of NECA [2]	A3 EC50 as a ratio of that of NECA [3]	SMILES
10.54	159.5	>94	OCCn1nnc(C2OC(n3cnc4c(NCC(c5ccccc5)c5ccccc5)nc(NCCN5CCCCC5)nc43)C(O)C2O)n1 [Example 5, (2R,3R,4S,5R)-2-[6-(2,2-Diphenyl-ethylamino)-2-(2-piperidin-1-yl-ethylamino)-purin-9-yl]-5-[2-(2-hydroxy-ethyl)-2H-tetrazo-5-yl]-tetrahydro-furan-3,4-diol bis(trifluoroacetate)]
30.95	755.4	>93	CCCn1nnc(C2OC(n3cnc4c(NCC(c5ccccc5)c5ccccc5)nc(NCCN5CCCCC5)nc43)C(O)C2O)n1 [Example 2, 2R,3R,4S,5R)-2-[6-(2,2-Diphenyl-ethylamino)-2-(2-piperidin-1-yl-ethylamino)-purin-9-yl]-5-(2-propyl-2H-tetrazo-5-tetrahydro-furan-3,4-diol bis(trifluoroacetate)]
26.38	>6131	>165	C=CCn1nnc(C2OC(n3cnc4c(NCC(c5ccccc5)c5ccccc5)nc(NCCN5CCCCC5)nc43)C(O)C2O)n1 [Example 8, (2R,3S,4R,5R)-2-(2-Allyl 2H-tetrazol-5-[6-(2,2-diphenyl-ethylamino)-2-(2-piperidin-1-yl-ethylamino)-purin-9-yl]-tetrahydro-furan-3,4-diolbis(trifluoroacetate)]
16.59	310.5	>93	CC(=O)OCCn1nnc(C2OC(n3cnc4c(NCC(c5ccccc5)c5ccccc5)nc(NCCN5CCCCC5)nc43)C(O)C2O)n1 (stereo not drawn) [Example 3, Acetic acid 2-(5-{5R-[6-(2,2-diphenyl-ethylamino)-2-(2-piperidin-1-yl-ethylamino)-purin-9-yl]-3S,4R-dihydroxy-tetrahydro-furan-2R -yl}-tetrazol-2-yl)-ethyl ester bis(trifluoroacetate)]
